According to publication PMC11013038, “Design, Synthesis, and Evaluation of B-(Trifluoromethyl)phenyl Phosphine–Borane Derivatives as Novel Progesterone Receptor Antagonists” (Molecules, 2024):

How the values were obtained:
[1] = biological target: T1, progesterone receptor (PR) (Homo sapiens, UniProt P06401); assay: T47D alkaline phosphatase assay, PR antagonistic activity in the presence of 1 nM P4; assay type: cell-based; conditions: for IC50: T47D cells, 1.0 nM P4, 48 h, mean ± SD from three independent experiments
T1 construct: alkaline phosphatase assay with the T47D human breast cancer cell line; endogenous in cells; host or cells: T47D
T1 sequence (P06401 1-933): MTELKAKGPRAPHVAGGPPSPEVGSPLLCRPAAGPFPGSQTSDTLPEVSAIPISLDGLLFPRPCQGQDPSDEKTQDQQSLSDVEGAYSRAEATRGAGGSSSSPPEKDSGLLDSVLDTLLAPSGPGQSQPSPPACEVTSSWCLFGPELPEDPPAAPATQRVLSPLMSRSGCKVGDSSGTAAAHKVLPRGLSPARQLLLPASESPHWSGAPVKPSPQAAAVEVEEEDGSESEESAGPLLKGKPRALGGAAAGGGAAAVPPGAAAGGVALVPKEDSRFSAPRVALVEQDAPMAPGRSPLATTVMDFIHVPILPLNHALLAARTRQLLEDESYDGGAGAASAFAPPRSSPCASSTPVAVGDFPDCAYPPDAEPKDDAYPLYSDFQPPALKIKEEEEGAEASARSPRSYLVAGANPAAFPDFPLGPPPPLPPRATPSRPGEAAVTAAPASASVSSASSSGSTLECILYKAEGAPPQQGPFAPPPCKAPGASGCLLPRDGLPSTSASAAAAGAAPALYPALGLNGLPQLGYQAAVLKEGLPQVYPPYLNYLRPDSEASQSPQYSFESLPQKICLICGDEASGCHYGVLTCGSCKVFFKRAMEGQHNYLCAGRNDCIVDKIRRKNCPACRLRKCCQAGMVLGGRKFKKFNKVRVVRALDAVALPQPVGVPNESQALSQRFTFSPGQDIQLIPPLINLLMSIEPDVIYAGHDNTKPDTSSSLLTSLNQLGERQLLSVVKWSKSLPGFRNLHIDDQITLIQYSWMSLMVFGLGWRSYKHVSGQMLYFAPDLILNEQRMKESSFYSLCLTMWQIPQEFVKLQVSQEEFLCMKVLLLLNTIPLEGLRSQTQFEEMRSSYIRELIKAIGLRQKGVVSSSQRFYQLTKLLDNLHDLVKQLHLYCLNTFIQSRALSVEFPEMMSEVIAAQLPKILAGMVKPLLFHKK
Description: The PR agonistic and antagonistic activities of the synthesized phosphine–borane derivatives were evaluated using an alkaline phosphatase assay with the T47D human breast cancer cell line. […] The basal alkaline phosphatase activity was also not affected by the tested compounds alone. […] The PR antagonistic activities of the compounds were assessed in the presence of 1 nM of P4 (5). We also calculated the molecular volume of each compound to investigate the structure–activity relationship (SAR). Table 2 summarizes the PR antagonistic activity and calculated volumes of the synthesized compounds. […] We investigated the binding affinity of the compounds toward the PR ligand-binding domain (LBD) using a fluorescence polarization assay system. […] We also investigated the activity of compounds 28 and 34 toward the androgen receptor (AR) by means of cell-proliferation promoting/inhibitory activity toward androgen-dependent SC-3 cells. […].
T47D alkaline phosphatase assays were performed as previously described, with minor modifications. Briefly, the human breast cancer cell line T47D (HMS LINCS database Accession Numbers: 50541) was routinely cultivated in RPMI 1640 medium with 10% FBS at 37 °C in a 5% CO2 humidified incubator. The cells were plated in 96-well plates and incubated overnight in a 5% CO2 humidified incubator at 37 °C. The next day, the cells were treated with a fresh medium containing the test compound in the presence of 1 nM of progesterone and further incubated for 48 h. The medium was aspirated, and the cells were fixed with 100 μL of 1.8% formalin–PBS. The fixed cells were washed with PBS, and 100 μL of an assay buffer (1 mg/mL p-nitrophenol phosphate in diethanolamine water solution, pH 9.0) was added. The mixture was incubated at room temperature for 2 h under light-shielded conditions. The absorbance was measured at 405 nm using a DTX 880 Multimode Detector (Beckman Coulter, Brea, CA, USA). All data points were measured in triplicate, and IC50 values were calculated from three independent experiments.

androgen receptor (AR) [2] = biological target: T2, androgen receptor (AR) (Mus musculus, UniProt P19091); assay: SC-3 cell proliferation assay, AR agonistic activity (compound alone); assay type: cell-based, murine; conditions: for EC50: SC-3 cells, induction of cell proliferation by single treatment of the compound, 0.01 μM to 10 μM, read-out: EC50 (agonist); for effect on SC-3 cell growth in the absence of dihydrotestosterone (AR agonistic activity): androgen-dependent SC-3 cells
T2 construct: SC-3 cells were cultured in MEMα (Fujifilm Wako Co.) supplemented with 2 %; endogenous in cells; host or cells: SC-3
T2 sequence (P19091 1-899): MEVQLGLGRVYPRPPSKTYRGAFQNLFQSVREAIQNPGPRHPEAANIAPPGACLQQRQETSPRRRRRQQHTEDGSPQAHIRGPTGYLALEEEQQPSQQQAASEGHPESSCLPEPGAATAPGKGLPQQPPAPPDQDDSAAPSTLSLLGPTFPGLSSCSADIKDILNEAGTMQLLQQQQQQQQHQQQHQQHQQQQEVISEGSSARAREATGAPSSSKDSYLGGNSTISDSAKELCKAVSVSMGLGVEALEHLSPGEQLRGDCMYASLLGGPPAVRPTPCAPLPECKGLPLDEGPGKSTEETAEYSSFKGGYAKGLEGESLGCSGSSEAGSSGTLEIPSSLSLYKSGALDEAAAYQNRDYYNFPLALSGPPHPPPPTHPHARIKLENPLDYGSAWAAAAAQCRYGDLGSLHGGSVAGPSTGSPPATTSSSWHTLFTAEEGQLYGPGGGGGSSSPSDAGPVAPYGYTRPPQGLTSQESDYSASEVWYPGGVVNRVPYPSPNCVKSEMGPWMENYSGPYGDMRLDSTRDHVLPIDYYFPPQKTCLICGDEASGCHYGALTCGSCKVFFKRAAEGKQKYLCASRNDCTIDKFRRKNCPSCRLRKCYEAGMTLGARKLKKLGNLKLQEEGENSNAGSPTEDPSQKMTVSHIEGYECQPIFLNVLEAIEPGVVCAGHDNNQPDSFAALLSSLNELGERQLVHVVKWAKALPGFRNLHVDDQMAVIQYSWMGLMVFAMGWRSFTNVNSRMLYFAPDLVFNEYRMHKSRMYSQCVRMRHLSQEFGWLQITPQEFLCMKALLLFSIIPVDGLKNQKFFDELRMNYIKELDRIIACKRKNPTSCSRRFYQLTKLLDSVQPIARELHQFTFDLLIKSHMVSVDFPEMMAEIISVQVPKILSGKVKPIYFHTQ

androgen receptor (AR) [3] = biological target: T2, androgen receptor (AR); assay: SC-3 cell proliferation assay, AR antagonistic activity (1 nM DHT-promoted proliferation); assay type: cell-based, murine; conditions: for effect on SC-3 cell growth in the presence of dihydrotestosterone (AR antagonistic activity): androgen-dependent SC-3 cells; for IC50: read-out: IC50 (antagonist)

Row | IC50 [1] [µM] | EC50 (androgen receptor (AR) [2]) [µM] | effect on SC-3 cell growth in the absence of dihydrotestosterone (AR agonistic activity) (androgen receptor (AR) [2]) | effect on SC-3 cell growth in the presence of dihydrotestosterone (AR antagonistic activity) (androgen receptor (AR) [3]) | IC50 (androgen receptor (AR) [3]) [µM] | potency relative to triisopropylphosphine derivative 32 ([1]; T47D alkaline phosphatase assay, comparison of IC50) | SMILES
1 | > 10 | > 10 | did not affect cell growth | did not affect cell growth | > 10 |  | C[P+](C)(C)[BH2-]c1ccc(C(F)(F)F)cc1 [Compound 28, B-4-(Trifluoromethyl)phenyl Trimethylphosphine–Borane]
2 | 0.54 ± 0.09 | > 10 | did not affect cell growth | did not affect cell growth | > 10 | approximately three times more potent | FC(F)(F)c1ccc([BH2-][P+](C2CC2)(C2CC2)C2CC2)cc1 [Compound 34, B-4-(Trifluoromethyl)phenyl Tricyclopropylphosphine–Borane]
